US12319664B2, “Herbicidally active 3-phenylisoxazoline-5-carboxamides of cyclopentenylcarboxylic acid derivatives” (Bayer Aktiengesellschaft, priority 2018, dated 2025)

Tests used:
ALOMY [1] = experiment: Pre-emergence herbicidal action against ALOMY; assay type: in vivo, Alopecurus myosuroides; settings: application rate 80 g/ha, scored visually after about 3 weeks vs untreated controls (100% = plants have died, 0% = like control plants)
Description: (§1) 1. Pre-emergence herbicidal action against harmful plants and crop plant compatibility Seeds of monocotyledonous and dicotyledonous weed plants and crop plants are placed in plastic or wood-fibre pots and covered with soil. The compounds of the invention, formulated in the form of wettable powders (WP) or as emulsion concentrates (EC), are then applied onto the surface of the covering soil as aqueous suspension or emulsion with addition of 0.5% additive at a water application rate of 600 l/ha (converted). After the treatment, the pots are placed in a greenhouse and kept under good growth conditions for the trial plants. After about 3 weeks, the effect of the preparations is scored visually in comparison with untreated controls as percentages. For example, 100% activity=the plants have died, 0% activity=like control plants. [table]

AVEFA [2] = experiment: Pre-emergence herbicidal action against AVEFA; assay type: in vivo, Avena fatua; settings: application rate 80 g/ha, scored visually after about 3 weeks vs untreated controls (100% = plants have died, 0% = like control plants)
Description: as §1

ECHCG [3] = experiment: Pre-emergence herbicidal action against ECHCG; assay type: in vivo, Echinochloa crus-galli; settings: application rate 80 g/ha, scored visually after about 3 weeks vs untreated controls (100% = plants have died, 0% = like control plants)
Description: as §1

LOLRI [4] = experiment: Pre-emergence herbicidal action against LOLRI; assay type: in vivo, Lolium rigidum; settings: application rate 80 g/ha, scored visually after about 3 weeks vs untreated controls (100% = plants have died, 0% = like control plants)
Description: as §1

SETVI [5] = experiment: Pre-emergence herbicidal action against SETVI; assay type: in vivo, Setaria viridis; settings: application rate 80 g/ha, scored visually after about 3 weeks vs untreated controls (100% = plants have died, 0% = like control plants)
Description: as §1

ABUTH [6] = experiment: Pre-emergence herbicidal action against ABUTH; assay type: in vivo, Abutilon theophrasti; settings: application rate 80 g/ha, scored visually after about 3 weeks vs untreated controls (100% = plants have died, 0% = like control plants)
Description: as §1

AMARE [7] = experiment: Pre-emergence herbicidal action against AMARE; assay type: in vivo, Amaranthus retroflexus; settings: application rate 80 g/ha
Description: as §1

MATIN [8] = experiment: Pre-emergence herbicidal action against MATIN; assay type: in vivo, Matricaria inodora; settings: application rate 80 g/ha, scored visually after about 3 weeks vs untreated controls (100% = plants have died, 0% = like control plants)
Description: as §1

PHBPU [9] = experiment: Pre-emergence herbicidal action against PHBPU; assay type: in vivo, Pharbitis purpurea; settings: application rate 80 g/ha
Description: as §1

POLCO [10] = experiment: Pre-emergence herbicidal action against POLCO; assay type: in vivo, Polygonum convolvulus; settings: application rate 80 g/ha
Description: as §1

STEME [11] = experiment: Pre-emergence herbicidal action against STEME; assay type: in vivo, Stellaria media; settings: application rate 80 g/ha
Description: as §1

VIOTR [12] = experiment: Pre-emergence herbicidal action against VIOTR; assay type: in vivo, Viola tricolor; settings: application rate 80 g/ha
Description: as §1

VERPE [13] = experiment: Pre-emergence herbicidal action against VERPE; assay type: in vivo, Veronica persica; settings: application rate 80 g/ha
Description: as §1

HORMU [14] = experiment: Pre-emergence herbicidal action against HORMU; assay type: in vivo, Hordeum murinum; settings: application rate 80 g/ha
Description: as §1

ALOMY [15] = experiment: Post-emergence herbicidal action against ALOMY; assay type: in vivo, Alopecurus myosuroides; settings: application rate 80 g/ha, rated visually after about 3 weeks
Outline: (§2)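 Percent herbicidal activity was judged visually relative to untreated controls approximately 3 weeks after spraying. Treatment occurred at the one-leaf stage on greenhouse-grown plants in sandy loam.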

AVEFA [16] = experiment: Post-emergence herbicidal action against AVEFA; assay type: in vivo, Avena fatua; settings: application rate 80 g/ha, rated visually after about 3 weeks
Outline: as §2

ECHCG [17] = experiment: Post-emergence herbicidal action against ECHCG; assay type: in vivo, Echinochloa crus-galli; settings: application rate 80 g/ha, rated visually after about 3 weeks
Outline: as §2

LOLRI [18] = experiment: Post-emergence herbicidal action against LOLRI; assay type: in vivo, Lolium rigidum; settings: application rate 80 g/ha, rated visually after about 3 weeks
Outline: as §2

SETVI [19] = experiment: Post-emergence herbicidal action against SETVI; assay type: in vivo, Setaria viridis; settings: application rate 80 g/ha, rated visually after about 3 weeks
Outline: as §2

ABUTH [20] = experiment: Post-emergence herbicidal action against ABUTH; assay type: in vivo, Abutilon theophrasti; settings: application rate 80 g/ha, rated visually about 3 weeks after treatment
Outline: as §2

AMARE [21] = experiment: Post-emergence herbicidal action against AMARE; assay type: in vivo, Amaranthus retroflexus; settings: application rate 80 g/ha, rated visually about 3 weeks after treatment
Outline: as §2

MATIN [22] = experiment: Post-emergence herbicidal action against MATIN; assay type: in vivo, Matricaria inodora; settings: application rate 80 g/ha, rated visually about 3 weeks after treatment
Outline: as §2

PHBPU [23] = experiment: Post-emergence herbicidal action against PHBPU; assay type: in vivo, Pharbitis purpurea; settings: application rate 80 g/ha, rated visually about 3 weeks after treatment
Outline: as §2

POLCO [24] = experiment: Post-emergence herbicidal action against POLCO; assay type: in vivo, Polygonum convolvulus; settings: application rate 80 g/ha, rated visually about 3 weeks after treatment
Outline: as §2

STEME [25] = experiment: Post-emergence herbicidal action against STEME; assay type: in vivo, Stellaria media; settings: application rate 80 g/ha, rated visually about 3 weeks after treatment
Outline: as §2

VIOTR [26] = experiment: Post-emergence herbicidal action against VIOTR; assay type: in vivo, Viola tricolor; settings: application rate 80 g/ha, rated visually about 3 weeks after treatment
Outline: as §2

VERPE [27] = experiment: Post-emergence herbicidal action against VERPE; assay type: in vivo, Veronica persica; settings: application rate 80 g/ha
Outline: as §2

HORMU [28] = experiment: Post-emergence herbicidal action against HORMU; assay type: in vivo, Hordeum murinum; settings: application rate 80 g/ha
Outline: as §2

CYPES = experiment: Pre-emergence herbicidal action against CYPES; assay type: in vivo; settings: application rate 80 g/ha, scored visually after about 3 weeks vs untreated controls (100% = plants have died, 0% = like control plants)
Description: as §1, with “plants.” for “plants. [table]”

| SMILES | Herbicidal action against [%] ALOMY (ALOMY [1]) | Herbicidal action against [%] AVEFA (AVEFA [2]) | Herbicidal action against [%] ECHCG (ECHCG [3]) | Herbicidal action against [%] LOLRI (LOLRI [4]) | Herbicidal action against [%] SETVI (SETVI [5]) | Herbicidal action against [%] ABUTH (ABUTH [6]) | Herbicidal action against [%] AMARE (AMARE [7]) | Herbicidal action against [%] MATIN (MATIN [8]) | Herbicidal action against [%] PHBPU (PHBPU [9]) | Herbicidal action against [%] POLCO (POLCO [10]) | Herbicidal action against [%] STEME (STEME [11]) | Herbicidal action against [%] VIOTR (VIOTR [12]) | Herbicidal action against [%] HORMU (HORMU [14]) | Herbicidal action against [%] ALOMY (ALOMY [15]) | Herbicidal action against [%] AVEFA (AVEFA [16]) | Herbicidal action against [%] LOLRI (LOLRI [18]) | Herbicidal action against [%] SETVI (SETVI [19]) | Herbicidal action against [%] PHBPU (PHBPU [23]) | Herbicidal action against [%] POLCO (POLCO [24]) | Herbicidal action against [%] STEME (STEME [25]) | also measured |
| --- | --- | --- | --- | --- | --- | --- | --- | --- | --- | --- | --- | --- | --- | --- | --- | --- | --- | --- | --- | --- | --- |
| C=CC1(C(=O)NC2C=CC(C(=O)OC)C2)CC(c2cc(F)cc(F)c2)=NO1 (stereo not shown) [Example I-012] | 100% | 90% | 100% | 100% | 100% | 90% | 100% | 90% | 90% | 90% | 100% | 90% | 90% | 90% | 100% | 90% | 90% | 90% | 80% | 80% | Herbicidal action against [%] VERPE (VERPE [13]): 100%; Herbicidal action against [%] ECHCG (ECHCG [17]): 90%; Herbicidal action against [%] ABUTH (ABUTH [20]): 80%; Herbicidal action against [%] AMARE (AMARE [21]): 90%; Herbicidal action against [%] MATIN (MATIN [22]): 90%; Herbicidal action against [%] VIOTR (VIOTR [26]): 80%; Herbicidal action against [%] VERPE (VERPE [27]): 80%; Herbicidal action against [%] HORMU (HORMU [28]): 100% |
| C=CC1(C(=O)NC2C=CC(C(=O)OCC)C2)CC(c2cc(F)cc(F)c2)=NO1 (stereo not shown) [Example I-013] | 100% | 100% | 100% | 100% | 100% | 90% | 100% | 100% | 90% | 90% | 100% | 100% | 100% | 80% | 90% | 90% | 90% | 80% | 90% | 80% | Herbicidal action against [%] VERPE (VERPE [13]): 90%; Herbicidal action against [%] ECHCG (ECHCG [17]): 80%; Herbicidal action against [%] ABUTH (ABUTH [20]): 80%; Herbicidal action against [%] AMARE (AMARE [21]): 80%; Herbicidal action against [%] MATIN (MATIN [22]): 90%; Herbicidal action against [%] VIOTR (VIOTR [26]): 80%; Herbicidal action against [%] VERPE (VERPE [27]): 80%; Herbicidal action against [%] HORMU (HORMU [28]): 90% |
| CC(C)C(C#N)NC(=O)C1C=CC(NC(=O)C2(C)CC(c3cc(F)cc(F)c3)=NO2)C1 (mixture of isomers) [II-12] | 90% | 80% | – | 90% | 90% | 80% | 90% | – | – | 100% | 90% | 80% | – | 90% | 80% | 80% | 80% | 80% | 80% | 90% | Herbicidal action against [%] ABUTH (ABUTH [20]): 80%; Herbicidal action against [%] AMARE (AMARE [21]): 80%; Herbicidal action against [%] VERPE (VERPE [27]): 80% |
| CCOC(=O)[C@@H]1C=C[C@H](NC(=O)C2(C)CC(c3cccc(F)c3)=NO2)C1 (stereo partly shown) [Example I-006] | 100% | 90% | 100% | 100% | 100% | – | 100% | 90% | 90% | 80% | 100% | 90% | 90% | 80% | 80% | 80% | – | 80% | – | 80% | Herbicidal action against [%] CYPES (CYPES): 100%; Herbicidal action against [%] ECHCG (ECHCG [17]): 80%; Herbicidal action against [%] HORMU (HORMU [28]): 80% |
| CN(C)C(=O)C1=CCC(NC(=O)C2(C)CC(c3cccc(F)c3)=NO2)C1 (mixture of isomers) [IV-02] | 100% | 90% | 90% | 100% | 90% | 80% | 100% | – | 80% | 100% | 90% | 90% | 100% | – | – | – | – | – | 80% | – | Herbicidal action against [%] VERPE (VERPE [13]): 90% |
| COC(=O)[C@H]1C=C[C@@H](NC(=O)C2(C)CC(c3cccc(F)c3)=NO2)C1 (stereo partly drawn) [Example I-003, methyl (1R,4S)-4-[[[3-(3-fluorophenyl)-5-methyl-4H-1,2-oxazol-5-yl]carbonyl]amino]cyclopent-2-ene-1-carboxylate] | – | – | – | – | – | – | – | – | – | 80% | 80% | 100% | – | – | – | – | – | – | 80% | – | Herbicidal action against [%] CYPES (CYPES): 100% |
| CC1(C(=O)NC2C=CC(C(=O)NS(=O)(=O)C(F)(F)F)C2)CC(c2cccc(F)c2)=NO1 (mixture of isomers) [II-16] | 100% | 80% | 100% | 100% | 80% | – | 90% | 80% | – | 90% | 100% | 80% | – | – | – | 80% | 80% | – | – | – | Herbicidal action against [%] CYPES (CYPES): 100% |
